Blank lines part the entries; values can stand above or below the compound they belong to.
Experiments:
NBD1/3D = test: Aggregation analysis using differential static light scattering (DSLS), NBD1 thermal stability; assay type: binding, Human; settings: ΔTagg versus DMSO control; compound at 100 μM
Outline: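 Thermal stabilisation reported as ΔTagg, i.e. aggregation temperature relative to averaged DMSO wells. Tagg came from the inflection of differential static light scattering imaged 25–70 °C while NBD1 (0.2 mg/ml, Tris pH 7.6 buffer containing ATP, MgCl2, DTT, glycerol) was ramped 1 °C/min.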

CFTR = biological target: T1, CFTR (Homo sapiens, UniProt P13569, DEL508-508); test: TECC24 recording of CFTR-mediated transepithelial chloride transport in ΔF508 homozygous CF-HBE cells; assay type: cell-based; settings: 10 μM test agent, 48 hours incubation, AUC of forskolin-stimulated IEQ divided by vehicle AUC, primary CF-HBE cells
T1 construct: Primary human bronchial epithelial cells from a ΔF508 homozygous CF donor; host or cells: primary human bronchial epithelial cells (CF-HBE), ΔF508 homozygous donor
Outline: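 ΔF508 homozygous primary bronchial epithelia exposed to compound 48 h at 36.5 °C, then transepithelial voltage and resistance recorded in pH 7.4 buffer with benzamil (10 μM), forskolin (10 μM) stimulation and CFTRinh-172 (20 μM) stop. Equivalent Cl⁻ current AUC vs vehicle gives efficacy; EC50 fitted with Hill slope fixed at 1.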

T1 sequence (P13569 with tags, fused parts or gaps DEL508-508): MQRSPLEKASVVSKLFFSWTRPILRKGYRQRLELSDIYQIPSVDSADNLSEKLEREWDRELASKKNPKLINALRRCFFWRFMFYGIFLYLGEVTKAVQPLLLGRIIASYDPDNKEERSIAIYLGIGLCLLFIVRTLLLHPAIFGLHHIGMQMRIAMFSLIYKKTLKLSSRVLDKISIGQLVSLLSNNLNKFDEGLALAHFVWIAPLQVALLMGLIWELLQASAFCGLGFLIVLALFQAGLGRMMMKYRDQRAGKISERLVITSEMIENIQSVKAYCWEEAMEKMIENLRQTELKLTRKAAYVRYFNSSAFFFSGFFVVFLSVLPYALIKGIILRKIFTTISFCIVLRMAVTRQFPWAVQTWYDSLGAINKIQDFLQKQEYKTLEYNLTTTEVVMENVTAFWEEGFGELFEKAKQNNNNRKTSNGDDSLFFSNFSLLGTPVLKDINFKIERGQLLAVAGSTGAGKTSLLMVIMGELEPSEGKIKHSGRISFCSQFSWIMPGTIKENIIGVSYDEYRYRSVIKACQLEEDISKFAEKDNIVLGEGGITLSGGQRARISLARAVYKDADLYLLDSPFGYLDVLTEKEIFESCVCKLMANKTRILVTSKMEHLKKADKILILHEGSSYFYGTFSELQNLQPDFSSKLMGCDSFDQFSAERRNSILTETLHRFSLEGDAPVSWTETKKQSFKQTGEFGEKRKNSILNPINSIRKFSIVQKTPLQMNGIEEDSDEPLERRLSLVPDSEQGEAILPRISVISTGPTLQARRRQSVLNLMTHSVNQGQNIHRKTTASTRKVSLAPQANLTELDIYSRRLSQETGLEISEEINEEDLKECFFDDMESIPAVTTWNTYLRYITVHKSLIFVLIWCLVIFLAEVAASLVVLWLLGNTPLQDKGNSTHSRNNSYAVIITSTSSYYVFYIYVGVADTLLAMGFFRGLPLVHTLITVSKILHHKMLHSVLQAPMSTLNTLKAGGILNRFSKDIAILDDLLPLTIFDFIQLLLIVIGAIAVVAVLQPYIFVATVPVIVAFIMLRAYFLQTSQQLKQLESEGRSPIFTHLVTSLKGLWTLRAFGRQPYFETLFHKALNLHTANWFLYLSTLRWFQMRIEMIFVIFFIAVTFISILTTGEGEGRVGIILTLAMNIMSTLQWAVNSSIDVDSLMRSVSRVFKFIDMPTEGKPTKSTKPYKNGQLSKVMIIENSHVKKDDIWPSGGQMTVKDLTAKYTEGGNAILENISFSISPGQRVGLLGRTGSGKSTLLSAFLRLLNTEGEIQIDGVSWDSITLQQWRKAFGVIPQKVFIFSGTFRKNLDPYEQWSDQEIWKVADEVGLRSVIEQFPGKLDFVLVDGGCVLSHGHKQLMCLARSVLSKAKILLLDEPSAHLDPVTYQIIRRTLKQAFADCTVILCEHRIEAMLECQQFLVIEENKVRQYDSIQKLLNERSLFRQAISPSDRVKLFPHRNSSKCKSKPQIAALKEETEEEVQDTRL

- TECC24 @ 10 μM over DMSO (AUC fold over DMSO) (CFTR): C (“C” refers to AUC @ 10 uM <= 4)
Structure (SMILES): CNC(=O)c1c(Oc2ccc(F)c(-c3ncc(Cc4cccc(CCC(=O)O)c4)[nH]3)c2)c(F)cc2[nH]ccc12 [Example 140, 3-(3-((2-(2-Fluoro-5-((6-fluoro-4-(methylcarbamoyl)-1H-indol-5-yl)oxy)phenyl)-1H-imidazol-5-yl)methyl)phenyl)propanoic acid]
- DSLS NBD1/3D Human Stability delta-T (° C.) @ 100 (μM) (NBD1/3D): B (B: 5-10° C.)

- TECC24 @ 10 μM over DMSO (AUC fold over DMSO) (CFTR): C (“C” refers to AUC @ 10 uM <= 4)
Structure (SMILES): CC(c1cnc(-c2cc(Oc3c(F)cc4[nH]ccc4c3CP(C)(C)=O)ccc2F)[nH]1)c1cccc(CCC(=O)O)c1F (single isomer, unassigned) [Example 133B, 3-(3-(1-(2-(5-((4-((dimethylphosphoryl)methyl)-6-fluoro-1H-indol-5-yl)oxy)-2-fluorophenyl)-1H-imidazol-5-yl)ethyl)-2-fluorophenyl)propanoic acid]
- DSLS NBD1/3D Human Stability delta-T (° C.) @ 100 (μM) (NBD1/3D): A (A: T ≥ 10° C.)

- TECC24 @ 10 μM over DMSO (AUC fold over DMSO) (CFTR): C (“C” refers to AUC @ 10 uM <= 4)
Structure (SMILES): CNC(c1cccc(CCC(=O)O)c1)c1cnc(-c2cccc(Oc3c(F)cc4[nH]ccc4c3F)c2)[nH]1 (centres unmarked) [Example 266, 3-(3-((2-(3-((4,6-Difluoro-1H-indol-5-yl)oxy)phenyl)-1H-imidazol-5-yl)(methylamino)methyl)phenyl)propanoic acid]
- DSLS NBD1/3D Human Stability delta-T (° C.) @ 100 (μM) (NBD1/3D): A (A: T ≥ 10° C.)

- TECC24 @ 10 μM over DMSO (AUC fold over DMSO) (CFTR): C (“C” refers to AUC @ 10 uM <= 4)
Structure (SMILES): Cc1c(Oc2cc(-c3ncc(C(C)(O)c4cccc(CCC(=O)O)c4)[nH]3)c(F)cc2F)c(F)cc2[nH]ccc12 (centres unmarked) [Example 206, 3-(3-(1-(2-(2,4-difluoro-5-((6-fluoro-4-methyl-1H-indol-5-yl)oxy)phenyl)-1H-imidazol-5-yl)-1-hydroxyethyl)phenyl) propanoic acid]
- DSLS NBD1/3D Human Stability delta-T (° C.) @ 100 (μM) (NBD1/3D): B (B: 5-10° C.)

- TECC24 @ 10 μM over DMSO (AUC fold over DMSO) (CFTR): A (“A” refers to AUC @10 uM >= 12)
Structure (SMILES): CC(c1cnc(-c2cc(Oc3c(F)cc4[nH]ccc4c3F)ccc2F)[nH]1)c1cccc(CC(=O)O)c1F (single isomer, unassigned) [Example 131A, 2-(3-(1-(2-(5-((4,6-difluoro-1H-indol-5-yl)oxy)-2-fluorophenyl)-1H-imidazol-5-yl)ethyl)-2-fluorophenyl)acetic acid]
- DSLS NBD1/3D Human Stability delta-T (° C.) @ 100 (μM) (NBD1/3D): A (A: T ≥ 10° C.)

- TECC24 @ 10 μM over DMSO (AUC fold over DMSO) (CFTR): A (“A” refers to AUC @10 uM >= 12)
Structure (SMILES): CC(c1cnc(-c2cc(Oc3c(F)cc4[nH]ccc4c3CN3CCCS3(=O)=O)ccc2F)[nH]1)c1cccc(CCC(=O)O)c1F (single isomer, unassigned) [Example 134B, 3-(3-(1-(2-(5-((4-((1,1-dioxidoisothiazolidin-2-yl)methyl)-6-fluoro-1H-indol-5-yl)oxy)-2-fluorophenyl)-1H-imidazol-5-yl)ethyl)-2-fluorophenyl)propanoic acid]
- DSLS NBD1/3D Human Stability delta-T (° C.) @ 100 (μM) (NBD1/3D): A (A: T ≥ 10° C.)

- TECC24 @ 10 μM over DMSO (AUC fold over DMSO) (CFTR): A (“A” refers to AUC @10 uM >= 12)
Structure (SMILES): CC(c1c[nH]c(-c2cc(Oc3c(F)cc4[nH]ccc4c3S(C)(=N)=O)ccc2F)n1)c1cccc(CCC(=O)O)c1F (single isomer, unassigned) [Example 136C, 3-(2-fluoro-3-(1-(2-(2-fluoro-5-((6-fluoro-4-(S-methylsulfonimidoyl)-1H-indol-5-yl)oxy)phenyl)-1H-imidazol-4-yl)ethyl)phenyl)propanoic acid]
- DSLS NBD1/3D Human Stability delta-T (° C.) @ 100 (μM) (NBD1/3D): A (A: T ≥ 10° C.)

- TECC24 @ 10 μM over DMSO (AUC fold over DMSO) (CFTR): C (“C” refers to AUC @ 10 uM <= 4)
Structure (SMILES): O=C(O)CCc1cccc(C(O)(c2cnc(-c3cc(Oc4c(F)cc5[nH]ccc5c4F)ccc3F)[nH]2)C(F)(F)F)c1 (centres unmarked) [Example 273, 3-(3-(1-(2-(5-((4,6-difluoro-1H-indol-5-yl)oxy)-2-fluorophenyl)-1H-imidazol-5-yl)-2,2,2-trifluoro-1-hydroxyethyl)phenyl)propanoic acid]
- DSLS NBD1/3D Human Stability delta-T (° C.) @ 100 (μM) (NBD1/3D): B (B: 5-10° C.)

- TECC24 @ 10 μM over DMSO (AUC fold over DMSO) (CFTR): C (“C” refers to AUC @ 10 uM <= 4)
Structure (SMILES): Cc1c(Oc2ccc(F)c(-c3ncc([C@]4(c5cccc(CCC(=O)O)c5)C[C@H](O)CO4)[nH]3)c2)c(F)cc2[nH]ccc12 (racemic) [Example 274, rac-3-(3-((2r,4s)-2-(2-(2-Fluoro-5-((6-fluoro-4-methyl-1H-indol-5-yl)oxy)phenyl)-1H-imidazol-5-yl)-4-hydroxytetrahydrofuran-2-yl)phenyl)propanoic acid]
- DSLS NBD1/3D Human Stability delta-T (° C.) @ 100 (μM) (NBD1/3D): A (A: T ≥ 10° C.)

Second part, the compound before the results:

Structure (SMILES): O=C(O)CCc1cccc(Cc2cnc(-c3cc(Oc4c(F)cc5[nH]ccc5c4CC4CCCS4(=O)=O)ccc3F)[nH]2)c1F (centres unmarked) [Example 125, 3-(3-((2-(5-((4-((1,1-dioxidotetrahydrothiophen-2-yl)methyl)-6-fluoro-1H-indol-5-yl)oxy)-2-fluorophenyl)-1H-imidazol-5-yl)methyl)-2-fluorophenyl)propanoic acid]
- DSLS NBD1/3D Human Stability delta-T (° C.) @ 100 (μM) (NBD1/3D): A (A: T ≥ 10° C.)
- TECC24 @ 10 μM over DMSO (AUC fold over DMSO) (CFTR): A (“A” refers to AUC @10 uM >= 12)

Structure (SMILES): O=C(O)CCc1cc(F)cc(Cc2cnc(-c3cc(Oc4c(F)cc5[nH]ccc5c4F)ccc3F)[nH]2)c1F [Example 124, 3-(3-((2-(5-((4,6-difluoro-1H-indol-5-yl)oxy)-2-fluorophenyl)-1H-imidazol-5-yl)methyl)-2,5-difluorophenyl)propanoic acid]
- DSLS NBD1/3D Human Stability delta-T (° C.) @ 100 (μM) (NBD1/3D): B (B: 5-10° C.)
- TECC24 @ 10 μM over DMSO (AUC fold over DMSO) (CFTR): B (“B” refers to AUC @10 uM between 4-12)

Structure (SMILES): CC(c1c[nH]c(-c2cc(Oc3c(F)cc4[nH]ccc4c3S(C)(=O)=O)ccc2F)n1)c1cccc(CC(=O)O)c1F (single isomer, unassigned) [Example 84, 2-(2-fluoro-3-(1-(2-(2-fluoro-5-((6-fluoro-4-(methylsulfonyl)-1H-indol-5-yl)oxy)phenyl)-1H-imidazol-4-yl)ethyl)phenyl)acetic acid]
- DSLS NBD1/3D Human Stability delta-T (° C.) @ 100 (μM) (NBD1/3D): A (A: T ≥ 10° C.)
- TECC24 @ 10 μM over DMSO (AUC fold over DMSO) (CFTR): B (“B” refers to AUC @10 uM between 4-12)

Structure (SMILES): CS(=O)(=O)c1c(Oc2cccc(-c3ccn(Cc4cccc(CCC(=O)O)c4)n3)c2)ccc2[nH]ccc12 [Example 40]
- DSLS NBD1/3D Human Stability delta-T (° C.) @ 100 (μM) (NBD1/3D): A (A: T ≥ 10° C.)
- TECC24 @ 10 μM over DMSO (AUC fold over DMSO) (CFTR): A (“A” refers to AUC @10 uM >= 12)

Structure (SMILES): O=C(O)CCc1cccc(Cc2c[nH]c(-c3cc(Oc4c(F)cc5[nH]ccc5c4F)ccc3F)n2)c1 [Example 118, 3-(3-((2-(5-((4,6-difluoro-1H-indol-5-yl)oxy)-2-fluorophenyl)-1H-imidazol-4-yl)methyl)phenyl)propanoic acid]
- DSLS NBD1/3D Human Stability delta-T (° C.) @ 100 (μM) (NBD1/3D): B (B: 5-10° C.)
- TECC24 @ 10 μM over DMSO (AUC fold over DMSO) (CFTR): B (“B” refers to AUC @10 uM between 4-12)

Structure (SMILES): [2H]C([2H])([2H])C(C#N)(c1cccc(CCC(=O)O)c1)c1cnc(-c2cc(Oc3c(F)c(F)c4[nH]ccc4c3F)ccc2F)[nH]1 (single isomer, unassigned) [Example 64A, 3-(3-(1-Cyano-1-(2-(2-fluoro-5-((4,6,7-trifluoro-1H-indol-5-yl)oxy)phenyl)-1H-imidazol-5-yl)ethyl-2,2,2-d3)phenyl)propanoic acid]
- DSLS NBD1/3D Human Stability delta-T (° C.) @ 100 (μM) (NBD1/3D): B (B: 5-10° C.)
- TECC24 @ 10 μM over DMSO (AUC fold over DMSO) (CFTR): B (“B” refers to AUC @10 uM between 4-12)

Structure (SMILES): O=C(O)CCc1cccc(Cc2c[nH]c(-c3cc(Oc4c(F)cc5c(ccn5P(=O)(O)O)c4F)ccc3F)n2)c1F [Example 270, 3-(3-((2-(5-((4,6-Difluoro-1-phosphono-1H-indol-5-yl)oxy)-2-fluorophenyl)-1H-imidazol-4-yl)methyl)-2-fluorophenyl)propanoic acid]
- DSLS NBD1/3D Human Stability delta-T (° C.) @ 100 (μM) (NBD1/3D): C (C: ≤5° C.)
- TECC24 @ 10 μM over DMSO (AUC fold over DMSO) (CFTR): C (“C” refers to AUC @ 10 uM <= 4)

Structure (SMILES): O=C(O)CCc1cccc(C2(c3cnc(-c4cc(Oc5c(F)cc6[nH]ccc6c5F)ccc4F)[nH]3)CCN(CC(F)(F)F)CC2)c1 [Example 169, 3-(3-(4-(2-(5-((4,6-difluoro-1H-indol-5-yl)oxy)-2-fluorophenyl)-1H-imidazol-5-yl)-1-(2,2,2-trifluoroethyl)piperidin-4-yl)phenyl)propanoic acid]
- DSLS NBD1/3D Human Stability delta-T (° C.) @ 100 (μM) (NBD1/3D): B (B: 5-10° C.)
- TECC24 @ 10 μM over DMSO (AUC fold over DMSO) (CFTR): C (“C” refers to AUC @ 10 uM <= 4)

Structure (SMILES): CC(c1cn(C)c(-c2cc(Oc3c(F)cc4[nH]ccc4c3F)ccc2F)n1)c1cccc(CCC(=O)O)c1F (single isomer, unassigned) [Example 278B, 3-(3-(1-(2-(5-((4,6-difluoro-1H-indol-5-yl)oxy)-2-fluorophenyl)-1-methyl-1H-imidazol-4-yl)ethyl)-2-fluorophenyl)propanoic acid]
- DSLS NBD1/3D Human Stability delta-T (° C.) @ 100 (μM) (NBD1/3D): B (B: 5-10° C.)
- TECC24 @ 10 μM over DMSO (AUC fold over DMSO) (CFTR): A (“A” refers to AUC @10 uM >= 12)

Structure (SMILES): CS(=O)(=O)CCc1c(Oc2ccc(F)c(-c3ncc(Cc4cccc(CCC(=O)O)c4F)[nH]3)c2)c(F)cc2[nH]ccc12 [Example 126, 3-(2-fluoro-3-((2-(2-fluoro-5-((6-fluoro-4-(2-(methylsulfonyl)ethyl)-1H-indol-5-yl)oxy)phenyl)-1H-imidazol-5-yl)methyl)phenyl)propanoic acid]
- DSLS NBD1/3D Human Stability delta-T (° C.) @ 100 (μM) (NBD1/3D): A (A: T ≥ 10° C.)
- TECC24 @ 10 μM over DMSO (AUC fold over DMSO) (CFTR): B (“B” refers to AUC @10 uM between 4-12)

Reference: patent publication US20240279220A1, “INDOLE COMPOUNDS AND METHODS OF USE” (Genzyme Corporation, priority 2021, published 2024)
